The text below walks through data of patent US20250313555A1, “2-SUBSTITUTED THIAZOLE AND BENZOTHIAZOLE COMPOSITIONS AND METHODS AS DUX4 INHIBITORS” (ALTAY THERAPEUTICS, INC., priority 2022, published 2025).

Common to all, as to type: cell-based
One series has as its system MB200 cells. The series is described as follows: Cell cytotoxicity 50 assay (CC50), MB200 cells, cell titer glo. Conditions: 72 h. Put shortly:
(§1)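 MB200 cells were seeded at 10 k/well in F10 medium with bFGF, 15% FBS and dexamethasone. Cells were exposed to serially diluted compound (from 10 mM stock) in triplicate for 72 h at 37 °C. Viability was read by CellTiter-Glo luminescence and CC50 was fitted.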
(In general: In ATP-based viability assays light output follows the ATP content of the culture.)

In another series the test system is HEK. The series is described as follows: Cell cytotoxicity 50 assay (CC50), HEK cells. Put shortly: (§2)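 Starting from a 10 mM drug solution, serial dilutions were made in medium and added onto HEK cells, which were then incubated 72 h at 37 °C. Viability was read as CellTiter-Glo luminescence after 5 min, and CC50 was obtained by curve fitting.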
The test system of another series is MBD3L2 RNA. The series is described as follows: RNA isolation and qPCR to determine MBD3L2 RNA levels in FSHD cells. Conditions: 48 hrs. Summed up:
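FSHD cells were treated one day after seeding with a DUX4 inhibitor (11 μM or 3.6 μM) for 48 h. Total RNA was DNase-treated and reverse-transcribed with random hexamers and M-MLV. MBD3L2 was quantified by SYBR Green qPCR in triplicate against EEF1A as the reference gene.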
For orientation: In qPCR the cycle at which signal appears reflects the starting amount.

Another series concerns the target T1, DUX4 (Homo sapiens, UniProt Q9UBX2).
T1 construct: expressed in transfected cells; host or cells: HEK293
The experiment in a line: DUX4 EC50 luciferase reporter protocol in transfected HEK293 cells. Conditions: 6 hr. The source says:
EC50 Protocol This example provides a representative protocol for a single well of a 96-well plate. It can be scaled up as necessary for treatment of multiple wells. For negative controls, a well containing reporter DNA, Renilla DNA, and turbofect (without expression vector) were used. For positive controls, wells containing cells that were not treated with any inhibitor were used. They were transfected with the complete DNA lipid complex as set forth below. The DNA-lipid complex for one well of the 96-well plate is prepared by adding to a tube 100 ng of the transfection factor (TF) expression vector, 100 ng of TF reporter DNA, 10 ng of Renilla reporter DNA, […] Turbofect transfection reagent, and […] of the medium without any serum or penicillin/streptomycin. The combination was mixed by gentle flicking of the tube, and the mixture was pipetted into a well of a 96-well plate. The plate was then gently tapped to spread the combination evenly on the bottom of the well. The well was incubated for 30 min. HEK293 cells were grown until 80% confluent in DMEM supplemented with 10% fetal bovine serum, 1% penicillin streptomycin, and 1% amphotericin B. The adherent cells growing on a 10 cm plate were trypsinized with 1 mL of prewarmed trypsin. Once the cells detached from the plate, 10 mL of medium was added, and the cells were strained through a […] cell strainer. The cells were counted using a mixture of 10 mL cell suspension with 10 mL of trypan blue. Once the total number of cells are counted, a dilution of 150 k/mL was prepared. After incubation of the transfection complex was complete, […] of HEK293s (23.25 k total cells) were gently dispensed on top of the wells containing the 25 mL transfection complex, producing a total volume of about 180 mL. The mixture was then incubated for 24 h. To treat cells with each inhibitor, the inhibitors were prepared in the same growth medium. In a deep well block, the regular medium with serum was added to well 1 (135 mL) and to wells 2 through 10 (100 mL). To the first well was added 15 mL of 10 nM inhibitor. The final concentration of the drug in well 1 was 1 nM. The wells were pipeted up and down, and 50 mL was transferred from well 1 to well 2 (1/3 dilution). The well was mixed, and the seriation dilution was repeated with the remaining wells. Once the serial dilution was complete, using a multichannel pipet, 20 mL of each inhibitor were transferred to designated wells in a 96-well plate. […] Before the assay, a sufficient amount of 1× passive lysis buffer was prepared. The luciferase substrate buffer (Promega) was thawed completely and then mixed with the lyophilized luciferase substrate. The stop buffer (Promega) was also completely thawed. (1) Cell lysis: After treatment of the cells was complete, all the cell media is removed by flipping the 96-well plate over and tapping it dry on a dry paper towel. Immediately afterwards, the 1× passive lysis buffer (25 μL) was added. The plates were then placed on a rocker for 15 minutes at medium speed. (2)Measuring luciferase signal: The luciferase substrate solution for all wells was placed in a solution basin. The luciferase substrate solution was then added to every well (100 μL/well) using a multichannel pipette. The total luminescence was then read immediately using a plate reader. (3)Measuring Renilla signal: The “complete stop solution” was prepared in a solution basin by mixing the buffer with the 50× stop solution substrate (Promega) to make the final 1× solution. The complete stop solution was added to each well (50 μL/well) using a multichannel pipette. The total luminescence was then read immediately using a plate reader. Using a spreadsheet (e.g., Excel), the luciferase signal was divided by the renilla signal to get a relative luciferase unit.
On the technique in general: Reporter assays use an easily measured gene product as a stand-in for the process of interest.

A short description of series [1]: Cell cytotoxicity 50 assay (CC50), MB200 cells, cell titer glo. Conditions: human. Summed up:
as §1

A short description of series [2]: Cell cytotoxicity 50 assay (CC50), HEK cells. Particulars: human. Summed up: as §2

T1 sequence (Q9UBX2 whole entry): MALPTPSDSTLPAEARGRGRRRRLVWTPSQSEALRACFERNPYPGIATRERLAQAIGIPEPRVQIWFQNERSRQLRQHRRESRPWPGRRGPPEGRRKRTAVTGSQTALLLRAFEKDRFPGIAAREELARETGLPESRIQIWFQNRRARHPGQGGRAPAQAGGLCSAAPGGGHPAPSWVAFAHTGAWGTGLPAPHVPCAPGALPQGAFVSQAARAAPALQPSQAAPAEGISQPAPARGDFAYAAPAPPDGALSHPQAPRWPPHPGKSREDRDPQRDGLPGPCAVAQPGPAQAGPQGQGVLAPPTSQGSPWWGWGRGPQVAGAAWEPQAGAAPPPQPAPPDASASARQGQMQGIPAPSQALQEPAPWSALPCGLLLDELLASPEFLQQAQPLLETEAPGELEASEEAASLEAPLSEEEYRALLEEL

As for `O=C(CCC1CCC(=O)N1)Nc1ccc(-c2nc3ccccc3s2)cc1` (stereo not shown) [Compound 26], the figures for the CC50 with MB200 cells and in the series with HEK were 1 to 10 µM and more than 10 µM, respectively. Also, the “qPCR MBD3L2 Inhib at 11 µM” value in the series on MBD3L2 RNA was “YES”.

On to `O=C(CCCCN1C(=O)CCC1=O)N[C@H]1CC[C@H](c2nc3ccccc3s2)CC1` [Compound 152], for which the EC50 (commonly the concentration at which the effect is half-maximal) at DUX4 was more than 10 µM. The CC50 at 72 h in series [1] and in series [2] was more than 10 µM each time.

On to `CC(=O)NC1CCC(C(=O)N[C@H]2CC[C@@H](c3nc4ccccc4s3)CC2)C1` (stereo partly shown) [Compound 133], for which the EC50 at DUX4 is more than 10 µM. Besides, the CC50 at 72 h in series [1] and in series [2] was more than 10 µM throughout.

Regarding `O=C(NCCCN1C(=O)CCC1=O)c1ccc(Cc2nc3ccccc3s2)cc1` [Compound 150], on DUX4, the EC50 is more than 10 µM. Further, the CC50 at 72 h in series [1] and in series [2] was more than 10 µM throughout.

For `CC(=O)NCCCC(=O)N(C)C1CCC(c2nc3ccccc3s2)C1` (stereo not shown) [Compound 146], the EC50 at DUX4 is more than 10 µM. Further, the CC50 at 72 h in series [1] and in series [2] was more than 10 µM in each case.

Consider `CC(=O)NCCCNC(=O)[C@@H]1CC[C@H](c2nc3ccccc3s2)C1` [Compound 165], for which the EC50 at DUX4 is more than 10 µM. In addition, the CC50 at 72 h in series [1] and in series [2] was more than 10 µM each time.

Turning to `O=C(CCCN1C(=O)CCC1=O)N[C@@H]1CC[C@H](c2nc3ccccc3s2)C1` [Compound 159], the CC50 (in general, the concentration giving 50% cytotoxicity) in the series with MB200 cells is more than 10 µM.

Take `O=C(CCCN1CCCC1=O)NC1COCC1c1nc2ccccc2s1` (stereo not shown) [Compound 122]: the EC50 on DUX4 is more than 10 µM. The CC50 at 72 h in series [1] and in series [2] was more than 10 µM throughout.

Consider `CC(=O)NCCCC(=O)Nc1ncc(-c2nc3ccccc3s2)o1` [Compound 121], for which, at DUX4, the EC50 is more than 10 µM. Also, the CC50 at 72 h in series [1] and in series [2] was more than 10 µM in each case.

For the compound `O=C(CCCN1C(=O)CCC1=O)N[C@@H]1CC[C@H](c2nc3ccccc3s2)C1` [Compound 127], on DUX4, the EC50 is more than 10 µM. Besides, the CC50 at 72 h in series [1] and in series [2] was more than 10 µM in each case.

As for `O=C(CCCN1C(=O)CCC1=O)N[C@H]1C[C@H](c2nc3ccccc3s2)C1` [Compound 98], the EC50 on DUX4 was more than 10 µM. The CC50 at 72 h in series [1] and in series [2] was more than 10 µM in each case.

Consider `O=C1CCC(CCC(=O)N[C@H]2CC[C@H](c3nc4ccccc4s3)CC2)N1` (stereo partly shown) [Compound 187], for which the EC50 at DUX4 was more than 10 µM. The CC50 at 72 h in series [1] and in series [2] was more than 10 µM in each case.

As to `O=C(CCCN1C(=O)CCC1=O)Nc1ccc(Cc2nc3ccccc3s2)cc1` [Compound 148], the EC50 on DUX4 is more than 10 µM. The CC50 at 72 h in series [1] and in series [2] was more than 10 µM in each case.

In the case of `CC(=O)NC1CCC(C(=O)NC2CCC(c3nc4ccccc4s3)C2)C1` (stereo not shown) [Compound 135], the EC50 at DUX4 is more than 10 µM. The CC50 at 72 h in series [1] and in series [2] was more than 10 µM in each case.

Regarding `O=C(CCCN1CCCC1=O)NC1CCCCC1c1nc2ccccc2s1` (stereo not shown) [Compound 123], on DUX4, the concentration for a half-maximal effect (EC50) was more than 10 µM. Besides, the CC50 at 72 h in series [1] and in series [2] was more than 10 µM each time.
